This is an account of results in patent US7432388B2 (Allergan, Inc., priority 2003, dated 2008).

Assay [1] has as its target T1, RARγ (Homo sapiens, UniProt P13631).
T1 sequence (P13631 1-454): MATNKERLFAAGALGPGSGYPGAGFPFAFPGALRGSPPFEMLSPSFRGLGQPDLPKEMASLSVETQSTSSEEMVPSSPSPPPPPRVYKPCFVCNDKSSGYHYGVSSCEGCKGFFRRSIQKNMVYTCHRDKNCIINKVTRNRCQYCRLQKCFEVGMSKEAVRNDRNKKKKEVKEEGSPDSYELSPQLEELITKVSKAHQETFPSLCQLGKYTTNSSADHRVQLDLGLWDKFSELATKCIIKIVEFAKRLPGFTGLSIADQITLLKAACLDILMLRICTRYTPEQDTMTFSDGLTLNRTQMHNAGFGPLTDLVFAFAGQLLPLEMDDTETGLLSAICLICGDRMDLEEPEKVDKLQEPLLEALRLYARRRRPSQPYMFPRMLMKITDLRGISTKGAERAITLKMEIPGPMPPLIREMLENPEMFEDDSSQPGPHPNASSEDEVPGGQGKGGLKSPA
In words: ligand binding assay. The settings on record: expressed in Ki numbers, read-out: RAR Binding γ. The method, then: (§1) The results obtained in this assay are expressed in EC50 numbers, as they are also in the chimeric receptor transactivation assay. The other functional assay running in the presence of 1 nM all-trans retinoic acid, namely PGA-RAR antagonist assay (utilizing glucocorticoid-retinoid chimeric receptors), is a modified chimeric receptor transactivation assay which tests the compounds for their antagonist-like activity in the RARα, RARγ and RARγ receptor subtypes.
The results of the ligand binding assay are expressed in Ki numbers.

In assay [2] the target is T2, RARγ (Homo sapiens, UniProt P13631).
T2 sequence (P13631 185-419 limits assumed): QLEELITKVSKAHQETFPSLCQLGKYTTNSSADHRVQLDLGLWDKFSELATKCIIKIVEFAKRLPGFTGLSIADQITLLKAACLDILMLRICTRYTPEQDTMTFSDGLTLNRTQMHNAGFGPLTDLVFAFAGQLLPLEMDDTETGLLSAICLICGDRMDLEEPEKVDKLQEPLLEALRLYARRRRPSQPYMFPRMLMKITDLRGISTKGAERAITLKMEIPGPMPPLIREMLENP
The experiment in a line: chimeric receptor transactivation assay (agonist-like activity). It is filed as cell-based. More on the design: RAR EC50 (nM) (% Efficiency) γ. The settings on record: read-out: RAR EC50 (nM) (% Efficiency) γ.

For the next assay, the target named is T3, RARα (Homo sapiens, UniProt P10276).
T3 sequence (P10276 183-417 limits assumed): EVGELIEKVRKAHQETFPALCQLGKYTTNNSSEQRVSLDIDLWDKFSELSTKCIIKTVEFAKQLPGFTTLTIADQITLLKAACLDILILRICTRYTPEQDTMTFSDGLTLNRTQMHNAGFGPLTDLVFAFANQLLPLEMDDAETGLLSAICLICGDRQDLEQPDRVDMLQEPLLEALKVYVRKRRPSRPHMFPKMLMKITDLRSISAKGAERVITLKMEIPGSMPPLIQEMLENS
The experiment in a line: PGA-RAR antagonist assay (glucocorticoid-retinoid chimeric receptors). It is filed as cell-based. More on the design: other: in the presence of 1 nM all-trans retinoic acid; fused on or other part: Glucocorticoid receptor DNA-recognition part in place of RAR's own. As to conditions: in the presence of 1 nM all-trans retinoic acid; read-out: RAR IC50 (nM) (% Inhibition) α. The source says: (§2) A holoreceptor transactivation assay and a ligand binding assay which measure the antagonist/agonist like activity of the compounds of the invention, or their ability to bind to the several retinoid receptor subtypes, respectively, are described in published PCT Application No. WO WO93/11755 (particularly on pages 30-33 and 37-41) published on Jun. 24, 1993, the specification of which is also incorporated herein by reference. A detailed experimental procedure for holoreceptor transactivations has been described by Heyman et al. Cell 68, 397-406, (1992); Allegretto et al. J. Biol. Chem. 268, 26625-26633, and Mangelsdorf et al. The Retinoids: Biology, Chemistry and Medicine, pp 319-349, Raven Press Ltd., New York, which are expressly incorporated herein by reference. The results obtained in this assay are expressed in EC50 numbers, as they are also in the chimeric receptor transactivation assay. The other functional assay running in the presence of 1 nM all-trans retinoic acid, namely PGA-RAR antagonist assay (utilizing glucocorticoid-retinoid chimeric receptors), is a modified chimeric receptor transactivation assay which tests the compounds for their antagonist-like activity in the RARα, RARγ and RARγ receptor subtypes. The results from this assay are normally expressed in IC50 numbers (See Teng et al. J. Med. Chem. 40, 2445-2452, (1997) incorporated herein by reference.)
(§3) Percentage inhibition in an antagonist assay is expressed as a percentage of the maximum inhibition of the transaction activity induced by 1 nM all-trans retinoic acid.

A further assay addresses T4, RARβ (Homo sapiens, UniProt P10826).
T4 sequence (P10826 183-417 limits assumed): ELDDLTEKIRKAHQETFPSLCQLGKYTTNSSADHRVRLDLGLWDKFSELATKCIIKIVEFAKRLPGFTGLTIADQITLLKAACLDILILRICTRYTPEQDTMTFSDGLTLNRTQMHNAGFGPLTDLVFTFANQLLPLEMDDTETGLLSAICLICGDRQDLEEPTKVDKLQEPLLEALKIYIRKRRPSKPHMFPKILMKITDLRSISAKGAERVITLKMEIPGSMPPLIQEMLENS
The assay is described as above. The arrangement: other: in the presence of 1 nM all-trans retinoic acid; fused on or other part: Glucocorticoid receptor DNA-recognition part in place of RAR's own. The settings on record: in the presence of 1 nM all-trans retinoic acid; read-out: RAR IC50 (nM) (% Inhibition) β. It is filed as cell-based.
Description: as §2, §3

The target of assay [3] is T2, RARγ. Described as above. More on the design: RAR IC50 (nM) γ; other: in the presence of 1 nM all-trans retinoic acid; fused on or other part: Glucocorticoid receptor DNA-recognition part in place of RAR's own. The format is cell-based. As to conditions: for IC50: in the presence of 1 nM all-trans retinoic acid, read-out: RAR IC50 (nM) γ; for RAR γ (% Inhibition): percentage of the maximum inhibition of the activity induced by 1 nM all-trans retinoic acid. The procedure:
as §1

By EC50 is commonly meant the concentration at which the effect is half-maximal. Usually IC50 stands for the concentration that gives 50% inhibition. With `Cc1ccc(C2=CCC(C)(C)c3cc(C(/C=C/c4ccc(C(=O)O)cc4)=N/O)ccc32)cc1` [Compound 7a, E-4-[3-(8,8-Dimethyl-5-p-tolyl-7,8-dihydro-naphthalen-2-yl)-3-hydroxyimino-propenyl]-benzoic acid], at RARγ [1], the Ki is 3 nM. Further, the EC50 at RARγ [2] was > 10000 nM. For the same compound, the IC50 on RARα was > 1000 nM; on RARβ, > 1000 nM; at RARγ [3], 0.6 nM. On RARγ [3], the “RAR γ (% Inhibition)” value was determined as 95%.

Regarding `Cc1ccc(C2=CC(C)(C)c3cc(C(/C=C/c4ccc(C(=O)O)cc4)=N/O)ccc32)cc1` [Compound 16a], the Ki at RARγ [1] was 25 nM. For the same compound, the EC50 on RARγ [2] is > 10000 nM. The IC50 at RARα was > 1000 nM; at RARβ it was > 1000 nM; on RARγ [3], 27 nM. On RARγ [3], the “RAR γ (% Inhibition)” value was found to be 78%.

Consider `Cc1ccc(C2=CCC(C)(C)c3cc(C(/C=C/c4ccc(C(=O)O)cc4)=N\O)ccc32)cc1` [Compound 7b, Z-4-[3-(8,8-dimethyl-5-p-tolyl-7,8-dihydro-naphthalen-2-yl)-3-hydroxyimino-propenyl]-benzoic acid], for which the Ki at RARγ [1] was determined as 29 nM. The EC50 at RARγ [2] is > 10000 nM. Moreover, the IC50 at RARα is > 1000 nM; on RARβ it was > 1000 nM; at RARγ [3] it was 25 nM. Besides, the “RAR γ (% Inhibition)” value on RARγ [3] was determined as 88%.

With `Cc1ccc(C2=CCC(C)(C)c3cc(C(/C=C/c4ccc(C(=O)O)cc4F)=N\O)ccc32)cc1` [Compound 9b, Z-4-[3-(8,8-Dimethyl-5-p-tolyl-7,8-dihydro-naphthalen-2-yl)-3-hydroxyimino-propenyl]-3-fluoro-benzoic acid], the Ki on RARγ [1] turned out to be 133 nM. For the same compound, the 50% effective concentration (EC50) at RARγ [2] was > 10000 nM. Further, the IC50 at RARα was > 1000 nM; on RARβ, > 1000 nM; at RARγ [3] it was 13 nM. Moreover, the “RAR γ (% Inhibition)” value on RARγ [3] turned out to be 78%.

For the compound `Cc1ccc(C2=CC(C)(C)c3cc(C(/C=C/c4ccc(C(=O)O)cc4)=N\O)ccc32)cc1` [Compound 16b], the Ki at RARγ [1] came to 145 nM. Moreover, the EC50 on RARγ [2] was > 10000 nM. Besides, the IC50 on RARα was > 1000 nM; at RARβ, > 1000 nM; on RARγ [3], 67 nM. In addition, the “RAR γ (% Inhibition)” value at RARγ [3] stood at 54%.

Consider `Cc1ccc(C2=CC(C)(C)c3cc(C(/C=C/c4ccc(C(=O)O)cc4F)=N\O)ccc32)cc1` [Compound 18b, Z-4-[3-(3,3-Dimethyl-1-p-tolyl-3H-inden-5-yl)-3-hydroxyimino-propenyl]-3-fluoro-benzoic acid], for which the Ki on RARγ [1] is 717 nM. For the same compound, the EC50 at RARγ [2] is > 10000 nM. For the same compound, the IC50 at RARα was > 1000 nM; at RARβ, > 1000 nM; at RARγ [3], 226 nM. Besides, the “RAR γ (% Inhibition)” value at RARγ [3] is given as 58%.

`Cc1ccc(C2=CC(C)(C)c3cc(C(/C=C/c4ccc(C(=O)O)cc4F)=N/O)ccc32)cc1` [Compound 18a, E-4-[3-(3,3-Dimethyl-1-p-tolyl-3H-inden-5-yl)-3-hydroxyimino-propenyl]-3-fluoro-benzoic acid]: on RARγ [1], the Ki is 70 nM. Further, the EC50 at RARγ [2] is > 10000 nM. The IC50 on RARα was > 1000 nM; at RARβ, > 1000 nM; on RARγ [3] it was 52 nM. Besides, the “RAR γ (% Inhibition)” value on RARγ [3] is 70%.

As for `Cc1ccc(C2=CCC(C)(C)c3cc(C(/C=C/c4ccc(C(=O)O)cc4F)=N/O)ccc32)cc1` [Compound 9a, E-4-[3-(8,8-Dimethyl-5-p-tolyl-7,8-dihydro-naphthalen-2-yl)-3-hydroxyimino-propenyl]-3-fluoro-benzoic acid], on RARγ [1], the Ki was 11 nM. The EC50 at RARγ [2] was > 10000 nM. The IC50 at RARα is > 1000 nM; on RARβ, > 1000 nM; on RARγ [3], 5 nM. Besides, on RARγ [3], the “RAR γ (% Inhibition)” value is reported as 90%.

Take `Cc1ccc(C2=CCC(C)(C)c3cc(C(/C=C/c4ccc(C(=O)O)cc4)=NO)ccc32)cc1` (racemic) [Compound 7c, 4-[3-(8,8-Dimethyl-5-p-tolyl-7,8-dihydro-naphthalen-2-yl)-3-hydroxyimino-propenyl]-benzoic acid]: the Ki on RARγ [1] was determined as 6 nM. Besides, on RARγ [2], the EC50 is > 10000 nM. Besides, the IC50 is > 50000 nM on RARα, > 100000 nM at RARβ and 2 nM on RARγ [3]. Moreover, the “RAR γ (% Inhibition)” value at RARγ [3] stood at 108%.
